21 compounds from ChEMBL document CHEMBL2016501, “Design, synthesis, and biological activity of novel 1,4-disubstituted piperidine/piperazine derivatives as CCR5 antagonist-based HIV-1 entry inhibitors” (Bioorg Med Chem Lett, 2012) can be followed below.

The structures appear in SMILES notation.

Series [1] is described as follows: Cytotoxicity against human CEMx174 5.25M7. The conditions noted are these: CEMx174 5.25M7 cells.
Series [2] is described as follows: Selectivity ratio of CC50 for human CEMx174 5.25M7 cells to IC50 for HIV1 Bal infected in CEMx174 5.25M7 cells. The series is classed as ADME, cell-based. To be noted: read-out: Ratio CC50/IC50.
In series [3] the test system is Human immunodeficiency virus 1. The series is described as follows: Antiviral against R5 tropic HIV1 Bal infected in human CEMx174 5.25M7 cells assessed as inhibition of viral replication. It is filed as functional, organism-based. To be noted: Human immunodeficiency virus 1, Bal.
Series [4] is described as follows: Solubility of the compound in 10 mM phosphate sodium buffer at pH 7.4 at 25 degC. The series is classed as physicochemical.
Series [5] relates to Human immunodeficiency virus 1. The series is described as follows: Antiviral activity against HIV1. The series is classed as functional, organism-based.
Series [6] can be described thus: Terminal half life in Sprague-Dawley rat at 5 mg/kg, po. The series is classed as ADME, organism-based. On the set-up: dose 5 mg/kg, route oral. To be noted: in vivo, read-out: beta t1/2 (converted).
Series [7] is described as follows: Oral bioavailability in Sprague-Dawley rat at 5 mg/kg. It is filed as ADME, organism-based. The conditions noted are these: in vivo.
Series [8] is described as follows: AUC (0 to 12 hrs) in Sprague-Dawley rat at 5 mg/kg, po. It is filed as ADME, organism-based. Set-up: time < 12 hr, dose 5 mg/kg, route oral. To be noted: plasma.
A short description of series [9]: Terminal half life in Sprague-Dawley rat at 1 mg/kg, iv. It is filed as ADME, organism-based. Set-up: dose 1 mg/kg, route intravenous. The conditions noted are these: in vivo, read-out: beta t1/2 (converted).
Series [10] is described as follows: AUC (0 to 12 hrs) in Sprague-Dawley rat at 1 mg/kg, iv. It is filed as ADME, organism-based. On the set-up: time < 12 hr, dose 1 mg/kg, route intravenous. The conditions noted are these: plasma.
For another series, the system named is hERG. In words: Selectivity ratio of IC50 for human Erg to IC50 for HIV1 Bal infected in human CEMx174 5.25 cells. To be noted: HIV1 Bal infected CEMx174 5.25 cells, read-out: Ratio IC50. The series is classed as ADME, cell-based.
Series [11] addresses Voltage-gated inwardly rectifying potassium channel KCNH2 (Homo sapiens, UniProt Q12809). The series is described as follows: Inhibition of human Erg expressed in HEK293 cells by whole cell patch clamp assay. The series is classed as cell-based.

Chain of Voltage-gated inwardly rectifying potassium channel KCNH2 (Q12809 whole entry): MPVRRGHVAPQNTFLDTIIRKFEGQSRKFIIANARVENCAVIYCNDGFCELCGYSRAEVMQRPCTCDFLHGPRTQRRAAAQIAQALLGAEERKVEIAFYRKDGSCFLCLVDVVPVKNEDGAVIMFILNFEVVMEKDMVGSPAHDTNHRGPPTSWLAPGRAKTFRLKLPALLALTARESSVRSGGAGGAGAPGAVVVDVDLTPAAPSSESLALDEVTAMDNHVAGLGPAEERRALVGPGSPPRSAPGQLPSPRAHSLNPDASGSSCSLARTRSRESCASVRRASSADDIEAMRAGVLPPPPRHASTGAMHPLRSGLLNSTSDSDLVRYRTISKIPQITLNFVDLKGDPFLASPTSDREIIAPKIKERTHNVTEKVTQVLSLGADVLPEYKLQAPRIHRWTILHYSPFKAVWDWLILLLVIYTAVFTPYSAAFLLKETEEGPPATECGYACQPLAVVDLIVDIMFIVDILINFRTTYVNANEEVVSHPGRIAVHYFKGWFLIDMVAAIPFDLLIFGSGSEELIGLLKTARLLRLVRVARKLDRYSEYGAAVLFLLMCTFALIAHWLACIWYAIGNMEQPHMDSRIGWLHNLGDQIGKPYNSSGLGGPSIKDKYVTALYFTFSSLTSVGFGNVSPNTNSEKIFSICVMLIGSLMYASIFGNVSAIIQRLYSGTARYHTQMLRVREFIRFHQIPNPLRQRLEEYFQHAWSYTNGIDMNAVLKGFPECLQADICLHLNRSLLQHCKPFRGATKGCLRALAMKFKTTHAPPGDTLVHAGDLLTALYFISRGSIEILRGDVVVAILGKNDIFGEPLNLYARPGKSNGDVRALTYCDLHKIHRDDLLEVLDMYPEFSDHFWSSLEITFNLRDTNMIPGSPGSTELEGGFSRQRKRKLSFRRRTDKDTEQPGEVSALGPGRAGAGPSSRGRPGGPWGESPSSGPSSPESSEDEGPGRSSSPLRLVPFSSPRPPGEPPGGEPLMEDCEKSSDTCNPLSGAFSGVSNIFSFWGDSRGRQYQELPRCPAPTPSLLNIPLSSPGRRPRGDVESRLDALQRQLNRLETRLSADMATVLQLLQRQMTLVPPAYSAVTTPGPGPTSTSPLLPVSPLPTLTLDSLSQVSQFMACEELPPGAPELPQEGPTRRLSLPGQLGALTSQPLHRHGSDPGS

In the case of `CC(=O)N1CCC(C(=O)N(CCCN2CCC(Oc3ccccc3)CC2)c2ccc(C)c(Cl)c2)CC1`, the 50% cytotoxic concentration (CC50) in [1] was more than 56600 nM. For the same compound, the selectivity ratio in series [2] was more than 1080. Further, the IC50 in series [3] was 52.3 nM.

With `CC(=O)N1CCC(C(=O)N(CCCN2CCN(Cc3ccc(Cl)nc3)CC2)c2ccc(C)c(Cl)c2)CC1`, the 50% cytotoxic concentration (CC50) in series [1] was more than 53100 nM. In addition, the selectivity ratio in series [2] is more than 14500. Also, the IC50 in series [3] worked out at 3.63 nM.

In the case of `CCN(C(=O)Cc1ccccc1)C1CCN(CCCN(C(=O)C2CCN(C(C)=O)CC2)c2ccc(C)c(Cl)c2)CC1.Cl`, the solubility in series [4] is less than 2000 µg/mL. Also, the CC50 in [1] worked out at 36200 nM. The EC50 in [5] was 2.5 nM. Besides, the selectivity ratio in series [2] stood at 6920. The IC50 in series [3] was 5.23 nM.

The compound `CC(=O)N1CCC(C(=O)N(CCCN2CCC(CNC(=O)c3ccsc3)CC2)c2ccc(C)c(Cl)c2)CC1` showed a CC50 in series [1] of more than 51900 nM. In addition, the selectivity ratio in [2] is more than 593. The half-maximal inhibitory concentration (IC50) in series [3] came out at 87.5 nM.

In turn, `CC(=O)N1CCC(C(=O)N(CCCN2CCC(CNc3cc(C)ccn3)CC2)c2ccc(C)c(Cl)c2)CC1` showed a 50% cytotoxic concentration (CC50) in series [1] of 17900 nM. For the same compound, the selectivity ratio in series [2] amounted to 10. Besides, the half-inhibitory concentration (IC50) in [3] turned out to be 1830 nM.

Compound `CC(=O)N1CCC(C(=O)N(CCCN2CCN(Cc3ccc(C#N)cc3)CC2)c2ccc(C)c(Cl)c2)CC1` had a CC50 in [1] of more than 100000 nM. Also, the selectivity ratio in series [2] is more than 11100. In addition, in series [3], the IC50 was determined as 9.01 nM.

With `CC(=O)N1CCC(C(=O)N(CCCN2CCN(Cc3ccncc3)CC2)c2ccc(C)c(Cl)c2)CC1`, the CC50 in [1] is more than 56700 nM. In addition, the selectivity ratio in series [2] is more than 6150. Moreover, in [3], the half-inhibitory concentration (IC50) came to 9.07 nM.

`CC(=O)N1CCC(C(=O)N(CCCN2CCN(Cc3ccc(S(C)(=O)=O)cc3)CC2)c2ccc(C)c(Cl)c2)CC1` returned a CC50 in series [1] of more than 49300 nM. In addition, the selectivity ratio in series [2] was more than 12100. Besides, the IC50 in series [3] is 3.99 nM.

Turning to `CC(=O)N1CCC(C(=O)N(CCCN2CCN(Cc3cnc(Cl)s3)CC2)c2ccc(C)c(Cl)c2)CC1`, the 50% cytotoxic concentration (CC50) in series [1] is more than 52400 nM. Besides, the selectivity ratio in series [2] was more than 4510. For the same compound, in series [3], the 50% inhibitory concentration (IC50) was determined as 11.6 nM.

For `CC(=O)N1CCC(C(=O)N(CCCN2CCN(Cc3cccnc3)CC2)c2ccc(C)c(Cl)c2)CC1`, the CC50 in series [1] is more than 56700 nM. In addition, in series [2], the selectivity ratio is more than 1740. Further, the IC50 in series [3] was 32.7 nM.

In series [1], `CC(=O)N1CCC(C(=O)N(CCCN2CCN(c3ccccn3)CC2)c2ccc(C)c(Cl)c2)CC1` gave a 50% cytotoxic concentration (CC50) of more than 58300 nM. Moreover, the selectivity ratio in [2] is more than 1040. Also, the half-maximal inhibitory concentration (IC50) in series [3] stood at 56.3 nM.

The compound `CC(=O)N1CCC(C(=O)N(CCCN2CCC(Cc3ccc(C(N)=O)cc3)CC2)c2ccc(C)c(Cl)c2)CC1.Cl` yielded a solubility in series [4] of 2000 µg/mL. The CC50 in series [1] was more than 100000 nM. The figures for the half-life in [6] and in series [9] were 4.25 h and 2.25 h, respectively. Besides, in [2], the selectivity ratio is more than 40300. In [7], the bioavailability worked out at 1.4%. The figures for the AUC(0-t) at 12 h in series [8] and in series [10] were 22.7 ng·h/mL and 328 ng·h/mL, respectively. In addition, the concentration for half-maximal inhibition (IC50) in series [3] was 2.48 nM.

As for `CC(=O)N1CCC(C(=O)N(CCCN2CCC(CNC(=O)c3cnccn3)CC2)c2ccc(C)c(Cl)c2)CC1`, the 50% cytotoxic concentration (CC50) in series [1] was more than 52400 nM. Besides, the selectivity ratio in series [2] is more than 2580. Moreover, the IC50 in series [3] was 20.3 nM.

In series [1], `CC(=O)N1CCC(C(=O)N(CCCN2CCC(CNc3ncccn3)CC2)c2ccc(C)c(Cl)c2)CC1` gave a half-maximal cytotoxic concentration (CC50) of more than 55100 nM. In addition, the selectivity ratio in [2] is more than 5330. Besides, the IC50 in [3] came to 10.2 nM.

In series [1], `CC(=O)N1CCC(C(=O)N(CCCN2CCN(Cc3ccc(Cl)cc3)CC2)c2ccc(C)c(Cl)c2)CC1` gave a 50% cytotoxic concentration (CC50) of 37600 nM. Besides, in series [2], the selectivity ratio worked out at 5730. Besides, in series [3], the IC50 was 6.56 nM.

In [5], `CC(=O)N1CCC(C(=O)N(CCCN2CC3CN(C(=O)c4c(C)ncnc4C)CC3C2)c2ccc(C)c(Cl)c2)CC1` (configuration not stated) returned a concentration for a half-maximal effect (EC50) of 2.7 nM.

Regarding `CC(=O)N1CCC(C(=O)N(CCCN2CCN(Cc3ccccc3)CC2)c2ccc(C)c(Cl)c2)CC1`, the half-maximal cytotoxic concentration (CC50) in [1] came to 101000 nM. Besides, in [2], the selectivity ratio was found to be 6800. For the same compound, the IC50 in [3] is 14.9 nM.

In the case of `CC(=O)N1CCC(C(=O)N(CCCN2CCN(Cc3ccc(F)cc3)CC2)c2ccc(C)c(Cl)c2)CC1.Cl`, the concentration in solution in series [4] (solubility) was 25000 µg/mL. In series [1], this compound yielded a half-maximal cytotoxic concentration (CC50) of more than 100000 nM. Moreover, the half-life is 0.76 h in [6] and 0.59 h in series [9]. For the same compound, the values for the selectivity ratio (in the series with hERG; in series [2]) were 295 and more than 16200, respectively. The compound further had a bioavailability in series [7] of 56%. In addition, the exposure AUC(0-t) at 12 h in series [8] was found to be 587 ng·h/mL; in series [10], 209 ng·h/mL. Further, the half-maximal inhibitory concentration (IC50) in [11] came out at 1820 nM; in [3] it was 6.17 nM.

`CCN(Cc1ccccc1)C(=O)C1CCN(CCCN(C(=O)C2CCN(C(C)=O)CC2)c2ccc(C)c(Cl)c2)CC1` gave a CC50 in series [1] of 83800 nM. The selectivity ratio in series [2] came out at 1400. In series [3], the half-maximal inhibitory concentration (IC50) came to 59.9 nM.

In [1], `CC(=O)N1CCC(C(=O)N(CCCN2CCN(C(=O)c3ccccc3)CC2)c2ccc(C)c(Cl)c2)CC1` returned a CC50 of 97800 nM. In addition, the selectivity ratio in [2] stood at 663. The 50% inhibitory concentration (IC50) in series [3] worked out at 147 nM.

In series [1], `CC(=O)N1CCC(C(=O)N(CCCN2CCN(Cc3ccc(C(F)(F)F)cc3)CC2)c2ccc(C)c(Cl)c2)CC1` yielded a CC50 of 30500 nM. For the same compound, in [2], the selectivity ratio was found to be 16500. Moreover, the concentration for half-maximal inhibition (IC50) in series [3] amounted to 1.85 nM.
